Measurements from paper PMC4303146, “Investigation of cyanine dyes for in vivo optical imaging of altered mitochondrial membrane potential in tumors” (Cancer Medicine, 2014).

Tests used:
[1] = Photophysical properties (fluorescence spectroscopy, quantum yield); format: physicochemical
Experimental: IC7-1 derivatives were dissolved in chloroform or 5% FBS to give a concentration of 1 μmol/L for fluorescence spectroscopy analysis. Excitation spectra were measured following the emission at 850 nm, and emission spectra were measured following excitation at 823 nm. Quantum yields were determined using a Fluorolog-3 spectrofluorometer equipped with an integrating sphere.

[2] = test system: HeLa cells; experiment: Cellular localization study (fluorescence microscopy with NAO mitochondria marker); format: cell-based, human; conditions: 1 μmol/L, 60 min, NAO 100 nmol/L
Experimental: HeLa cells (3 × 10^5 cells) were cultured in a poly-L-lysine coated glass bottom dish for 24 h at 37°C before use. Cells were washed twice with phosphate-buffered saline (PBS) and then incubated with the IC7-1 derivative dissolved in dimethyl sulfoxide (DMSO) (1 μmol/L final concentration) in DMEM supplemented with 5% FBS and 1% penicillin and streptomycin for 60 min. To determine the dye localization, mitochondria were labeled with NAO (100 nmol/L final concentration) for 20 min before completion of the incubation with IC7-1 derivative. Next, the cells were washed twice each with DMEM and PBS. Cells were viewed with a fluorescence microscope under a 100× oil-immersion objective lens. MetaMorph® software (Molecular Devices, LLC, Sunnyvale, CA) was used for imaging analysis.

[3] = test system: HeLa cells; experiment: Cellular uptake study with uncoupler CCCP; format: cell-based, human; conditions: dye 1 μmol/L, 60 min, CCCP 0-25 μmol/L
Experimental: A cellular uptake study was conducted as reported previously. Briefly, the buffer solution (pH 7.4) for the cellular uptake study was composed of NaCl ([…]), KCl (5.4 mmol/L), CaCl2 (1.2 mmol/L), MgSO4 (0.8 mmol/L), NaH2PO4 (0.8 mmol/L), dextrose (5.6 mmol/L), and 4-(2-hydroxyethyl)-1-piperazineethanesulfonic acid) (5 mmol/L). HeLa cells (1 × 10^6 cells/mL buffer solution) were incubated with carbonyl […] m-chlorophenylhydrazone (CCCP; 0, 0.1, 0.25, 0.5, 0.75, 1, 2.5, 5, 10, and 25 μmol/L) for 5 min at 37°C in 1.5 mL microtubes, followed by the addition of the IC7-1 derivative (1 μmol/L final concentration). After a 60-min incubation with the IC7-1 derivative, the cells were washed twice and resuspended with buffer solution. The fluorescence intensity was measured following the excitation at 823 nm and the emission from 840 to 900 nm, and the normalized intensity (%) was calculated as a percentage of fluorescence intensity obtained with CCCP untreated (0 μmol/L) cells.
The buffer solution (pH 7.4) for the cellular uptake study was composed of NaCl (145 mM), KCl (5.4 mM), CaCl2 (1.2 mM), MgSO4 (0.8 mM), NaH2PO4 (0.8 mM), dextrose (5.6 mM), and HEPES (5 mM). The HeLa cells (1 x 10^6 cells / ml buffer solution) were incubated with an uncoupler (CCCP; 0, 0.1, 0.25, 0.5, 0.75, 1, 2.5, 5, 10, and 25 µM) for 5 min at 37 °C in 1.5 mL microtubes, followed by the addition of IR-780 or IC7-1-Bu (1 µM final concentration) After a 60 min incubation with the dyes, the cells were washed twice and resuspended with buffer solution. Fluorescence intensity was measured following the excitation at 763 nm and the emission from 780 to 880 nm for IR-780, and the excitation at 823 nm and the emission from 840 to 900 nm for IC7-1-Bu. The normalized intensity (%) was calculated as a percentage of fluorescence intensity obtained with CCCP untreated (0 µM) cells.

[4] = target: T1, albumin-binding site I (warfarin-binding site) (Bos taurus, UniProt P02769); experiment: Protein-binding assay with competitive inhibitors in 5% FBS; format: in vitro ADME, bovine; conditions: for Normalized fluorescence intensity with warfarin (albumin site I inhibitor): 5% FBS, inhibitor 189 μmol/L, dye 1 μmol/L
T1 construct: incubated for 30 min in PBS (pH 7.4) containing 5% DMSO and 5% FBS; from tissue; host or cells: fetal bovine serum (5% in PBS)
T1 sequence (P02769 25-607): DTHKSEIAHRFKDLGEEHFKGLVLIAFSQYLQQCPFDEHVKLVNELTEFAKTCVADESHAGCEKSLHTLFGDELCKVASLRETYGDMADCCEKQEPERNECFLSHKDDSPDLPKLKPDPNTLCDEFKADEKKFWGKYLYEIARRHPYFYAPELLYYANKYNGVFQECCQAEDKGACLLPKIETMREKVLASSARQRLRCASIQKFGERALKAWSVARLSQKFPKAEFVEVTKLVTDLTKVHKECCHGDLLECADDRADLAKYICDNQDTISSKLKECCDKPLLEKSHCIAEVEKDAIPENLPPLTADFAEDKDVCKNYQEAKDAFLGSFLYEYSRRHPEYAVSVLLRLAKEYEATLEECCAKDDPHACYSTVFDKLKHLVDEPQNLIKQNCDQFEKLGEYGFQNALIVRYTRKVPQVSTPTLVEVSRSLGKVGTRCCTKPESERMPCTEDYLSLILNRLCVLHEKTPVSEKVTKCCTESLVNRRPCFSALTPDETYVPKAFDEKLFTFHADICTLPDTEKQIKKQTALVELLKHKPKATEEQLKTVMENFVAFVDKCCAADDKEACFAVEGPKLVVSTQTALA
Experimental: A protein-binding assay was conducted as reported previously. Briefly, warfarin, ibuprofen, digoxin, and quinidine were used as competitive inhibitors of albumin-binding sites I, II, III, and […], respectively. The inhibitors (0 and 189 μmol/L) were incubated for 30 min in PBS (pH 7.4) containing 5% DMSO and 5% FBS at room temperature. Immediately after the addition of the IC7-1 derivative (1 μmol/L final concentration), the fluorescence intensity was measured following the excitation at 823 nm and the emission from 840 to 900 nm. The normalized intensity (%) was calculated as a percentage of fluorescence intensity obtained from an inhibitor untreated sample.

[5] = target: BSA (Bos taurus, UniProt P02769); experiment: Association constants of IC7-1 derivatives to albumin (fluorimetric titration); format: binding, bovine; conditions: dye 1 µM, BSA 0-1.0 µM, 30 min; read-out: Ka, association constant of dye-albumin complex (converted)
Chain of BSA (P02769 25-607): as above
Experimental: Binding studies of IC7-1 derivatives to albumin were conducted as reported previously (Beckford G et al. The solvatochromic effects of side chain substitution on the binding interaction of novel tricarbocyanine dyes with human serum albumin. Talanta 2012;92: 45-52). Briefly, IC7-1 derivatives (1 µM final concentration) were incubated with BSA (0, 0.4, 0.6, 0.8, and 1.0 µM) for 30 min to equilibrate. The fluorescence intensity was measured following the excitation at 823 nm and the emission from 840 to 900 nm. The interaction between dye D and albumin A can be expressed by Eq. 1:
The association constant for the dye-albumin complex formation can be expressed by Eq. 2:
Then, the association constant Ka of the dye-albumin complex was calculated from the data for the fluorimetric titration of the dye with albumin using Eq. 3:
1/ΔF = 1/k[D] + (1/(k[D]Ka))·(1/[A]) (3)
where k is a constant depending on the instrumentation and quantum efficiency of the process.
Therefore, a plot of the reciprocal of ΔF versus the reciprocal of albumin concentration gives a straight line. The association constant was calculated by dividing the intercept by the slope of the line.

[6] = test system: HeLa cell xenograft; experiment: In vivo imaging study in HeLa cell xenograft mice
Experimental: Animal experiments were conducted in accordance with institutional guidelines and were approved by the Kyoto University Animal Care Committee. […] HeLa cells (2 × 10^6 cells in 100 μL of PBS) were subcutaneously inoculated into the right hind legs of mice. Fourteen days after implantation, mice were used for the imaging study.
Clairvivo® OPT measurement and display software ver. 2.6.0.0. (SHIMADZU Co.) was used for imaging analysis.
Exposure time was 5s for the scan at 3 h, and 3s for the other scans. Clairvivo® OPT measurement and display software ver. 2.6.0.0. (SHIMADZU Co., Kyoto, Japan) was used for imaging analysis.

[7] = test system: HeLa cell xenograft; experiment: In vivo blocking study with protein-binding inhibitor warfarin; design: species or system mice
Experimental: (§1) Animal experiments were conducted in accordance with institutional guidelines and were approved by the Kyoto University Animal Care Committee. Female nude mice (BALB/c nu/nu 4-weeks old), supplied by Japan SLC, Inc. (Shizuoka, Japan), were housed under a 12 h light/12 h dark cycle and were given free access to food (D10001) and water. HeLa cells (2 × 10^6 cells in 100 μL of PBS) were subcutaneously inoculated into the right hind legs of mice. Fourteen days after implantation, mice were used for the imaging study.
An in vivo blocking study using a protein-binding inhibitor was conducted as reported previously. Briefly, IC7-1-Bu (10 nmol, 100 μL) and warfarin (5.5 μmol, 100 μL) were simultaneously administered to mice via the tail vein, and the mice were imaged using the same method as described above.

[8] = test system: HeLa cell xenograft; experiment: In vivo blocking study with uncoupler CCCP; design: species or system mice; conditions: intratumoral CCCP 0.25 mg/kg, imaged 1 and 3 h
Experimental: as §1
In the in vivo blocking study using an uncoupler, IC7-1-Bu (10 nmol, 100 μL) was administered to tumor-bearing mice via the tail vein immediately after intratumoral injection of CCCP (2.5 mL/kg, 0.25 mg/kg). Mice were imaged 1 and 3 h after administration of the imaging agent using the same method as described above.

[9] = design: method as in PMID 21469142; conditions: cited from earlier work

| Φ, quantum yield ([1]; 5% FBS) | ε, extinction coefficient ([1]; 5% FBS) | emmax, maximum emission wavelength ([1]; 5% FBS, 1 μmol/L) | exmax, maximum excitation wavelength ([1]; 5% FBS, 1 μmol/L) | Φ, quantum yield ([1]; CHCl3) | ε, extinction coefficient ([1]; CHCl3) | emmax, maximum emission wavelength ([1]; CHCl3, 1 μmol/L) | exmax, maximum excitation wavelength ([1]; CHCl3, 1 μmol/L) | Normalized fluorescence intensity with warfarin (albumin site I inhibitor) [4] | Kd [5] | SMILES | Subcellular localization of NIR fluorescence [2] | Normalized cellular fluorescence intensity under CCCP treatment [3] | Tumor fluorescence intensity group from ROI analysis ([6]; 10 nmol i.v.) | Tumor depiction in fluorescence images ([6]; 10 nmol i.v., 24, 48 and 72 h) | other results |
| --- | --- | --- | --- | --- | --- | --- | --- | --- | --- | --- | --- | --- | --- | --- | --- |
| 0.03 | 90000 mol/L/cm | 847 nm | 823 nm | 0.06 | 330000 mol/L/cm | 845 nm | 823 nm | specifically bound to albumin | 0.625 µM | CCCCCN1/C(=C/C=C2\CCCC(/C=C/C3=[N+](CCCCC)c4ccc5ccccc5c4C3(C)C)=C2Cl)C(C)(C)c2c1ccc1ccccc21 [IC7-1-Pe, 3-Pentyl-2-(2-{3-[2-(3-pentyl-1,1-dimethyl-1,3-dihydro-benz[e]indol-2-ylidene)-ethylidene]-2-chloro-cyclohex-1-enyl}-vinyl)-1,1-dimethyl-1H-benz[e]indolium] | weak or negligible fluorescence in the NIR region | reduced cellular fluorescence from treatment with a low CCCP concentration | mild intensity group | Tumors were clearly depicted | – |
| 0.05 | 130000 mol/L/cm | 843 nm | 823 nm | 0.07 | 330000 mol/L/cm | 845 nm | 823 nm | specifically bound to albumin | 0.417 µM | CCCN1/C(=C/C=C2\CCCC(/C=C/C3=[N+](CCC)c4ccc5ccccc5c4C3(C)C)=C2Cl)C(C)(C)c2c1ccc1ccccc21 [IC7-1-Pr, 3-Propyl-2-(2-{3-[2-(3-propyl-1,1-dimethyl-1,3-dihydro-benz[e]indol-2-ylidene)-ethylidene]-2-chloro-cyclohex-1-enyl}-vinyl)-1,1-dimethyl-1H-benz[e]indolium] | colocalized fluorescence with NAO | reduced cellular fluorescence from treatment with a low CCCP concentration | mild intensity group | Tumors were clearly depicted | – |
| – | – | – | – | – | – | – | – | – | – | CC1(C)C(/C=C/C=C/C=C/C=C2\N(CCCCS(=O)(=O)O)c3ccc4ccccc4c3C2(C)C)=[N+](CCCCS(=O)(=O)[O-])c2ccc3ccccc3c21 [ICG, indocyanine green] | – | – | – | – | Clearance and tumor accumulation after i.v. administration [9]: rapid clearance through the liver into feces with low accumulation in tumors |

| SMILES | Φ, quantum yield ([1]; 5% FBS) | ε, extinction coefficient ([1]; 5% FBS) | emmax, maximum emission wavelength ([1]; 5% FBS, 1 μmol/L) | exmax, maximum excitation wavelength ([1]; 5% FBS, 1 μmol/L) | Φ, quantum yield ([1]; CHCl3) | ε, extinction coefficient ([1]; CHCl3) | emmax, maximum emission wavelength ([1]; CHCl3, 1 μmol/L) | exmax, maximum excitation wavelength ([1]; CHCl3, 1 μmol/L) | Normalized fluorescence intensity with warfarin (albumin site I inhibitor) [4] | Kd [5] | Subcellular localization of NIR fluorescence [2] | Normalized cellular fluorescence intensity under CCCP treatment [3] | Tumor fluorescence intensity group from ROI analysis ([6]; 10 nmol i.v.) | Tumor depiction in fluorescence images ([6]; 10 nmol i.v., 24, 48 and 72 h) | other results |
| --- | --- | --- | --- | --- | --- | --- | --- | --- | --- | --- | --- | --- | --- | --- | --- |
| CCCCN1/C(=C/C=C2\CCCC(/C=C/C3=[N+](CCCC)c4ccc5ccccc5c4C3(C)C)=C2Cl)C(C)(C)c2c1ccc1ccccc21 [IC7-1-Bu, 3-Butyl-2-(2-{3-[2-(3-butyl-1,1-dimethyl-1,3-dihydro-benz[e]indol-2-ylidene)-ethylidene]-2-chloro-cyclohex-1-enyl}-vinyl)-1,1-dimethyl-1H-benz[e]indolium] | 0.04 | 130000 mol/L/cm | 849 nm | 823 nm | 0.06 | 330000 mol/L/cm | 845 nm | 823 nm | specifically bound to albumin | 0.476 µM | colocalized fluorescence with NAO | reduced cellular fluorescence from treatment with a low CCCP concentration | high intensity group | Tumors were clearly depicted | Absorbance peak and fluorescence in 5% FBS versus 0% FBS solution ([4]; 5% FBS vs 0% FBS): significantly higher in 5% FBS solution than in 0% FBS solution; Absorbance peak ([4]; FBS solution): 836 nm; Retention of tumor fluorescence after i.v. administration ([6]; 10 nmol i.v.): 72 h; Fluorescence intensity at the tumor region ([6]; 10 nmol i.v., 24, 48 and 72 h): strong fluorescence intensity at the tumor region up to 72 h; Fluorescence intensity after co-administration of warfarin ([7]; IC7-1-Bu 10 nmol + warfarin 5.5 μmol i.v., 24-72 h): diminished throughout the body; Tumor to neck fluorescence ratio ([7]; warfarin (+), after 1 day): 2.36 ± 0.09; Tumor to neck fluorescence ratio ([7]; warfarin (+), after 2 day): 2.49 ± 0.10; Tumor to neck fluorescence ratio ([7]; warfarin (+), after 3 day): 2.46 ± 0.09; Tumor to neck fluorescence ratio ([7]; warfarin (−), after 1 day): 1.94 ± 0.11; Tumor to neck fluorescence ratio ([7]; warfarin (−), after 2 day): 2.02 ± 0.15; Tumor to neck fluorescence ratio ([7]; warfarin (−), after 3 day): 2.07 ± 0.48; Fluorescence intensity at the tumor after CCCP pretreatment [8]: significantly decreased by CCCP pretreatment |
